Results taken from article PMC3914206.

Tests used:
Type in all cases: binding
Set-up in all cases: KINOMEscan: ABL1(F317L)-phosphorylated / KINOMEscan: ABL1(H396P)-nonphosphorylated / KINOMEscan: ABL1(H396P)-phosphorylated / KINOMEscan: ABL1(M351T)-phosphorylated / KINOMEscan: ABL1(T315I)-phosphorylated / KINOMEscan: ABL1-nonphosphorylated / KINOMEscan: ABL1-phosphorylated / KINOMEscan: ACVR2A / KINOMEscan: ACVR2B / KINOMEscan: ADCK3 / KINOMEscan: ADCK4 / KINOMEscan: AKT1 / KINOMEscan: AKT3 / KINOMEscan: ALK / KINOMEscan: ARK5 / KINOMEscan: AURKA / KINOMEscan: AURKC / KINOMEscan: BIKE / KINOMEscan: BMPR1A / KINOMEscan: BMPR1B / KINOMEscan: BMX / KINOMEscan: BRK / KINOMEscan: BRSK1 / KINOMEscan: BRSK2 / KINOMEscan: CAMK1 / KINOMEscan: CAMK1D / KINOMEscan: CAMK1G / KINOMEscan: CAMK2A / KINOMEscan: CAMK2B / KINOMEscan: AAK1 / KINOMEscan: CAMK2D / KINOMEscan: CAMK2G / KINOMEscan: ABL1(F317I)-nonphosphorylated / KINOMEscan: ABL1(F317I)-phosphorylated / KINOMEscan: ABL1(F317L)-nonphosphorylated: unit: % Ctrl
panel of 442 kinases [1] = target: T1, panel of 442 kinases (Homo sapiens, UniProt P00519); details: Compound Concentration 10 µM
T1 construct: purchased KINOMEscan
Excerpt: (§1) We assessed the selectivity of members of this scaffold using the KINOMEscan methodology across a near comprehensive panel of 442 kinases [[18,27]].

panel of 442 kinases [2] = target: T2, panel of 442 kinases (Homo sapiens, UniProt Q16513); details: Compound Concentration 10 µM
T2 construct: purchased KINOMEscan
Excerpt: as §1

panel of 442 kinases [3] = target: T3, panel of 442 kinases (Homo sapiens, UniProt Q9UK32); details: compound concentration 10 µM; for % Ctrl, RSK4(Kin.Dom.1-N-terminal): kinase RSK4(Kin.Dom.1-N-terminal); for % Ctrl, RSK4(Kin.Dom.2-C-terminal): kinase RSK4(Kin.Dom.2-C-terminal)
T3 construct: purchased KINOMEscan
Excerpt: as §1

panel of 442 kinases [4] = target: T4, panel of 442 kinases (Homo sapiens, UniProt P00533, L858R/T790M); details: Compound Concentration 10 µM
T4 construct: purchased KINOMEscan
Excerpt: as §1

T4 sequence (P00533 25-1210 T790M/L858R): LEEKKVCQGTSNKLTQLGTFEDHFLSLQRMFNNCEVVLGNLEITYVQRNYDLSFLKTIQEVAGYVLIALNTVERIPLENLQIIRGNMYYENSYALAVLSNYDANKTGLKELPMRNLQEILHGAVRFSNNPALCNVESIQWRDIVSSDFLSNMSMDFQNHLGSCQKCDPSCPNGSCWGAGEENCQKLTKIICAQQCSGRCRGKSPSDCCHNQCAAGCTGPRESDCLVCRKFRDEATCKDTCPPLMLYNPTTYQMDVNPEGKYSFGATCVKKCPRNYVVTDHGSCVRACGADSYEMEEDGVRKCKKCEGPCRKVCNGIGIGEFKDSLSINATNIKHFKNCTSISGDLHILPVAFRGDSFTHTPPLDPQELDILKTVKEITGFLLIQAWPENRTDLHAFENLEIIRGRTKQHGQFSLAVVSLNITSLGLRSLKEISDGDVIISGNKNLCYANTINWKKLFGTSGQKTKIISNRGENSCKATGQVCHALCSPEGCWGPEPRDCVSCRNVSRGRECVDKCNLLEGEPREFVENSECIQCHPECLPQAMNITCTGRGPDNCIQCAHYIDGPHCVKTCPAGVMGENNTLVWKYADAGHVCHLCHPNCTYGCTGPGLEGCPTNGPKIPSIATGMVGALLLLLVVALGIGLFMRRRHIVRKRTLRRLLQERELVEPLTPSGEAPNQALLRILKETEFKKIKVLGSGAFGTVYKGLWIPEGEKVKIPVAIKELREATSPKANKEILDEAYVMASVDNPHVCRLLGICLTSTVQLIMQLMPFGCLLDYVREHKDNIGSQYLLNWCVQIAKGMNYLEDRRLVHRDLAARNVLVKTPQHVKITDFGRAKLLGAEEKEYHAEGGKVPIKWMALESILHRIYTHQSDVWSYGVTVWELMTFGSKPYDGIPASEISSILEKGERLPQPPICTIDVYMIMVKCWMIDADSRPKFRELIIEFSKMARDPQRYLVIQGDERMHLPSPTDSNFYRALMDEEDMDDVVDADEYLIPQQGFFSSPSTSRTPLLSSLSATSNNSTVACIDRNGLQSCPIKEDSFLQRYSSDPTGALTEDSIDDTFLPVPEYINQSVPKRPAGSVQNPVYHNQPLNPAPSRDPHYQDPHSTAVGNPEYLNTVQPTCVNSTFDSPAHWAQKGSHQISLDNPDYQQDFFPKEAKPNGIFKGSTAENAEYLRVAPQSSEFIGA
T3 sequence (Q9UK32 whole entry): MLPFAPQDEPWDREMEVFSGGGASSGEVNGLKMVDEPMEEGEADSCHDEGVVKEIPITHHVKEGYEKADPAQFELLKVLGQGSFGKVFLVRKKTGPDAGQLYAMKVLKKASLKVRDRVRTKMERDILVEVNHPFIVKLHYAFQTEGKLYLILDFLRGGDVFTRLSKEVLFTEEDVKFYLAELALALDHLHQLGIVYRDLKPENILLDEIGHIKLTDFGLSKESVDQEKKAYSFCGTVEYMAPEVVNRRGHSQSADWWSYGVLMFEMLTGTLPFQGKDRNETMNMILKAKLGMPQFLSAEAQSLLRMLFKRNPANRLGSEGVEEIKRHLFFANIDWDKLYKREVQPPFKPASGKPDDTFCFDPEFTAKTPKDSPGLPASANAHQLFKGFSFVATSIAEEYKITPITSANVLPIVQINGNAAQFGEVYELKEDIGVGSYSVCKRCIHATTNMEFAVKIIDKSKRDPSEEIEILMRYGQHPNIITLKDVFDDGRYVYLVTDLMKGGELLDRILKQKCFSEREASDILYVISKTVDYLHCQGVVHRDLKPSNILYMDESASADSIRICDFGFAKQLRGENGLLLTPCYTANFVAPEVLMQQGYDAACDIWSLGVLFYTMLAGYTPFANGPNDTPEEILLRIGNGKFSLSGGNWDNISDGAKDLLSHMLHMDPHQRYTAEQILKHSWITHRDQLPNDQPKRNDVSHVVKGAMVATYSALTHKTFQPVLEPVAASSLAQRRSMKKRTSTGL
T2 sequence (Q16513 whole entry): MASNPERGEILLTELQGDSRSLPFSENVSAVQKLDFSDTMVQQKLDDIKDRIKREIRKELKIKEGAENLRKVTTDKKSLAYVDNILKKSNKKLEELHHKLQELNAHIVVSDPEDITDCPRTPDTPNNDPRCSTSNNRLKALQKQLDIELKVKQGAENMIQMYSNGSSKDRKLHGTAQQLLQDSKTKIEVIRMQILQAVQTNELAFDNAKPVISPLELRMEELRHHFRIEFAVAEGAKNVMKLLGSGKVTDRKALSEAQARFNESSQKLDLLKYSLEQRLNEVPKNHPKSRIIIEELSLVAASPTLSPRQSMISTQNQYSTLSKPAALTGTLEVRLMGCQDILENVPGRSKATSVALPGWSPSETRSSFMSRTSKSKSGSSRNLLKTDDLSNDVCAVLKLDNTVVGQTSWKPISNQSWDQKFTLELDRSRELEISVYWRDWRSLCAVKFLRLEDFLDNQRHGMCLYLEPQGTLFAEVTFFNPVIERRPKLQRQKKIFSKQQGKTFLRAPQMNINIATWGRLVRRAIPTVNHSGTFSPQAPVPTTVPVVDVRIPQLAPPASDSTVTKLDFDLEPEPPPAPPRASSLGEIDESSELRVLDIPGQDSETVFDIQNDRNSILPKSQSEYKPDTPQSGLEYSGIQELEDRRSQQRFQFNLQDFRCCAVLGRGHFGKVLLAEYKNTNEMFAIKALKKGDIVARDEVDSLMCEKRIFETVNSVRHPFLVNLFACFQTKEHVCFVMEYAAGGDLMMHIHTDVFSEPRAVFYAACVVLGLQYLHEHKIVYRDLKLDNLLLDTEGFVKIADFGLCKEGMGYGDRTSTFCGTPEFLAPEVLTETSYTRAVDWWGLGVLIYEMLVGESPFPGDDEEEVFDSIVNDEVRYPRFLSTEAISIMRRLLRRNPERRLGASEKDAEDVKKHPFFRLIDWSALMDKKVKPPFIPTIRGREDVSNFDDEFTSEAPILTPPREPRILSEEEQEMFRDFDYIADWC
T1 sequence (P00519 whole entry): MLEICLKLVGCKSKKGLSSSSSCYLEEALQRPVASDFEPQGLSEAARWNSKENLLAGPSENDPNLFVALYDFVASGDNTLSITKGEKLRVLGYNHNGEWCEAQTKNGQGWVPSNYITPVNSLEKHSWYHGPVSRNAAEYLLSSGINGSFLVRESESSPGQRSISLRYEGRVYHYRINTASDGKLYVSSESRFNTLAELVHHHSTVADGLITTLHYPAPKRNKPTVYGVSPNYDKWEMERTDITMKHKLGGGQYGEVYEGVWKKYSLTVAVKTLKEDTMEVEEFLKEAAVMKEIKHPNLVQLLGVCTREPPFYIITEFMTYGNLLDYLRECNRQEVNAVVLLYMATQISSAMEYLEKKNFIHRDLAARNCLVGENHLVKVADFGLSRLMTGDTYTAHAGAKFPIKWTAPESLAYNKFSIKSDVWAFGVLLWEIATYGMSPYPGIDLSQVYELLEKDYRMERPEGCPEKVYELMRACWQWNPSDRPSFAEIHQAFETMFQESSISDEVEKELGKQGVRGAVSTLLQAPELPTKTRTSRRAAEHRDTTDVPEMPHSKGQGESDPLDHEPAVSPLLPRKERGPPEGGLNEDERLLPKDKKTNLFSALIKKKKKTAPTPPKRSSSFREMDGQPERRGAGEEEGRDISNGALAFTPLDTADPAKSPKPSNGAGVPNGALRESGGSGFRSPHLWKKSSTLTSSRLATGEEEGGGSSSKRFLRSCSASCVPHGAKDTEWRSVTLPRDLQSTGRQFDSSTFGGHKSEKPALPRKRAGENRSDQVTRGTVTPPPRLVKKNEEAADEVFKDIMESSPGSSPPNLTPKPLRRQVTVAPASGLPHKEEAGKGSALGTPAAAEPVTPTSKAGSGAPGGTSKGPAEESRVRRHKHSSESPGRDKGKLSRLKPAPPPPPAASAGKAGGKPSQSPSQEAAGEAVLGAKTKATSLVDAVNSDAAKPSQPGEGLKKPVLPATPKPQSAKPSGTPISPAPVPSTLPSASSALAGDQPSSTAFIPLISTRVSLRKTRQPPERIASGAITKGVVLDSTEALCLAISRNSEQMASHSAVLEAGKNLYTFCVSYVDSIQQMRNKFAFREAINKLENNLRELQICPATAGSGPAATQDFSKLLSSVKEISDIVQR

SMILES	KINOMEscan: ABL1-nonphosphorylated (panel of 442 kinases [1])	KINOMEscan: ABL1-phosphorylated (panel of 442 kinases [1])	KINOMEscan: PKN2 (panel of 442 kinases [2])	% Ctrl, RSK4(Kin.Dom.1-N-terminal) (panel of 442 kinases [3]) [% Ctrl]	% Ctrl, RSK4(Kin.Dom.2-C-terminal) (panel of 442 kinases [3]) [% Ctrl]	KINOMEscan: EGFR(L858R,T790M) (panel of 442 kinases [4])
COc1cc(C(=O)N2CCC(N3CCN(C)CC3)CC2)ccc1Nc1ncc2c(n1)N1CCc3cccc(c31)C(=O)N2C [Compound 24]	60	81	82	100	5.2	–
CCOc1cc(C(=O)N2CCC(N3CCN(C)CC3)CC2)ccc1Nc1ncc2c(n1)N(C1CCCC1)c1ccccc1C(=O)N2C [Compound 26]	96	100	100	100	98	78
COc1cc(C(=O)N2CCC(N3CCN(C)CC3)CC2)ccc1Nc1ncc2c(n1)N(C1CCCC1)c1ccccc1C(=O)N2C [Compound 25, 11-cyclopentyl-2-((2-methoxy-4-(4-(4-methylpiperazin-1-yl)piperidine-1-carbonyl)phenyl)amino)-5-methyl-5H-benzo[e]pyrimido[5,4-b][1,4]diazepin-6(11H)-one]	90	100	100	100	93	100
COc1cc(C(=O)N2CCC(N3CCN(C)CC3)CC2)ccc1Nc1ncc2c(n1)N(C)c1ccccc1C(=O)N2C [15 (LRRK2-IN-1)]	100	82	95	92	2.2	84
